Experiments:
Format in all cases: in vivo
[1] = system: CYPIR (Cyperus iria L., rice flatsedge); assay: Postemergence foliar-applied herbicidal mixtures, direct seeded rice, greenhouse (Example I)
Text: (§1) Seeds or nutlets of the desired test plant species were planted in a soil matrix prepared by mixing a loam or sandy loam soil (e.g., 28.6 percent silt, 18.8 percent clay, and 52.6 percent sand, with a pH of about 5.8 and an organic matter content of about 1.8 percent) and calcareous grit in an 80 to 20 ratio. The soil matrix was contained in plastic pots with a volume of 1 quart and a surface area of 83.6 square centimeters (cm^2). When required to ensure good germination and healthy plants, a fungicide treatment and/or other chemical or physical treatment was applied. The plants were grown for 8-22 days in a greenhouse with an approximate 14 h photoperiod which was maintained at about 29° C. during the day and about 26° C. during the night. Nutrients (Peters Excel® 15-5-15 5-Ca 2-Mg and iron chelate) were applied in the irrigation solution as needed and water was added on a regular basis. Supplemental lighting was provided with overhead metal halide 1000-Watt lamps as necessary. The plants were employed for testing when they reached the first through fourth true leaf stage.
(§2) Treatments consisted of the acid or esters of 4-amino-3-chloro-5-fluoro-6-(4-chloro-2-fluoro-3-methoxy-phenyl)pyridine-2-carboxylic acid (Compound A), each formulated as an SC (suspension concentrate), and various herbicidal components alone and in combination. Forms of compound A were applied on an acid equivalent basis.
(§3) Other herbicidal components were applied on an active ingredient basis and included acetolactate synthase (ALS)-inhibiting herbicides (sulfonamide chemical class) penoxsulam formulated as Grasp® SC, diclosulam formulated as Strongarm®, and cloransulam-methyl formulated as FirstRate®, flumetsulam formulated as Flumetsulam WG, and metosulam formulated as Eclipse®.
(§4) Treatment requirements were calculated based upon the rates being tested, the concentration of active ingredient or acid equivalent in the formulation, and a 12 mL application volume at a rate of 187 L/ha.
(§5) For treatments comprised of formulated compounds, measured amounts of compounds were placed individually in 25 mL glass vials and diluted in a volume of 1.25% (v/v) Agri-Dex® crop oil concentrated to obtain 12× stock solutions. […] Application solutions were prepared by adding an appropriate amount of each stock solution (e.g., 1 mL) and diluted to the appropriate final concentrations with the addition of 10 mL of an aqueous mixture of 1.25% (v/v) crop oil concentrate so that the final spray solutions contained 1.25+/−0.05% (v/v) crop oil concentrate.
(§6) All stock solutions and applications solutions were visually inspected for compound compatibility prior to application. Spray solutions were applied to the plant material with an overhead Mandel track sprayer equipped with an 8002E nozzle calibrated to deliver 187 L/ha over an application area of 0.503 m^2 at a spray height of 18 to 20 inches (46 to 50 cm) above average plant canopy height. Control plants were sprayed in the same manner with the solvent blank.
(§7) The treated plants and control plants were placed in a greenhouse as described above and watered by sub-irrigation to prevent wash-off of the test compounds. After approximately 3 weeks, the condition of the test plants as compared with that of the untreated plants was determined visually and scored on a scale of 0 to 100 percent where 0 corresponds to no injury or growth inhibition and 100 corresponds to complete kill.
(§8) Colby's equation was used to determine the herbicidal effects expected from the mixtures (Colby, S. R. 1967. Calculation of the synergistic and antagonistic response of herbicide combinations. Weeds 15:20-22.).
(§9) The following equation was used to calculate the expected activity of mixtures containing two active ingredients, A and B: Expected=A+B−(A×B/100)

[2] = system: DIGSA (Digitaria sanguinalis (L.) Scop., large crabgrass); assay: as above; settings: Cloransulam-methyl 2.19 gai/ha
Text: as §1, §2, §3, §4, §5, §6, §7, §8, §9

[3] = system: LEFCH (Leptochloa chinensis (L.) Nees, Chinese sprangletop); assay: as above
Text: as §1, §2, §3, §4, §5, §6, §7, §8, §9

[4] = system: CYPDI (Cyperus difformis L., smallflower umbrella sedge); assay: In-water applied herbicidal mixtures, transplanted paddy rice, greenhouse (Example II)
Experimental: (§10) Weed seeds or nutlets of the desired test plant species were planted in puddled soil (mud) prepared by mixing a shredded, non-sterilized mineral soil (50.5 percent silt, 25.5 percent clay, and 24 percent sand, with a pH of about 7.6 and an organic matter content of about 2.9 percent) and water at a 1:1 volumetric ratio. The prepared mud was dispensed in 365 mL aliquots into 16-ounce (oz.) non-perforated plastic pots with a surface area of 86.59 square centimeters (cm^2) leaving a headspace of 3 centimeters in each pot. Mud was allowed to dry overnight prior to planting or transplanting. Rice seeds were planted in Sun Gro MetroMix® 306 planting mixture, which typically has a pH of 6.0 to 6.8 and an organic matter content of about 30 percent, in plastic plug trays. Seedlings at the second or third leaf stage of growth were transplanted into 840 mL of mud contained in 32-oz. non-perforated plastic pots with a surface area of 86.59 cm^2 4 days prior to herbicide application. The paddy was created by filling the headspace of the pots with 2.5 to 3 cm of water. When required to ensure good germination and healthy plants, a fungicide treatment and/or other chemical or physical treatment was applied. The plants were grown for 4-22 days in a greenhouse with an approximate 14 h photoperiod which was maintained at about 29′C during the day and about 26° C. during the night. Nutrients were added as Osmocote® (19:6:12, N:P:K+minor nutrients) at 2 g per 16-oz. pot and 4 g per 32-oz. pot. Water was added on a regular basis to maintain the paddy flood, and supplemental lighting was provided with overhead metal halide 1000-Watt lamps as necessary. The plants were employed for testing when they reached the first through fourth true leaf stage.
(§11) Treatments consisted of the acid or esters of 4-amino-3-chloro-5-fluoro-6-(4-chloro-2-fluoro-3-methoxy-phenyl)pyridine-2-carboxylic acid (compound A) each formulated as an SC and various herbicidal components alone and in combination. Forms of compound A were applied on an acid equivalent basis.
(§12) Other herbicidal components were applied on an active ingredient basis and included acetolactate synthase (ALS)-inhibiting herbicides (sulfonamide chemical class) penoxsulam formulated as Grasp® SC (GF-443), diclosulam formulated as Strongarm®, and cloransulam-methyl formulated as FirstRate®.
(§13) Treatment requirements for each compound or herbicidal component were calculated based upon the rates being tested, the concentration of active ingredient or acid equivalent in the formulation, an application volume of 2 mL per component per pot, and an application area of 86.59 cm^2 per pot.
(§14) For formulated compounds, a measured amount was placed in an individual 100 or 200 mL glass vial and was dissolved in a volume of 1.25% (v/v) Agri-Dex® crop oil concentrate to obtain each application solution.
(§15) Applications were made by injecting with a pipetter appropriate amounts of the application solutions, individually and sequentially, into the aqueous layer of the paddy. Control plants were treated in the same manner with the solvent blank. Applications were made so that all treated plant material received the same concentrations of acetone and crop oil concentrate.
as §7, with “water was added as needed” for “watered by sub-irrigation”, “maintain a paddy flood.” for “prevent wash-off of the test compounds.”, “weeks” for “weeks,”
as §8, §9

[5] = system: ECHCG (Echinochloa crusgalli (L.) Beauv., barnyardgrass); assay: as above
Experimental: as §10, §11, §12, §13, §14, §15
as §7, with “water was added as needed” for “watered by sub-irrigation”, “maintain a paddy flood.” for “prevent wash-off of the test compounds.”, “weeks” for “weeks,”
as §8, §9

[6] = system: FIMMI (Fimbristylis miliacea (L.) Vahl, globe fringerush); assay: as above
Experimental: as §10, §11, §12, §13, §14, §15
as §7, with “water was added as needed” for “watered by sub-irrigation”, “maintain a paddy flood.” for “prevent wash-off of the test compounds.”, “weeks” for “weeks,”
as §8, §9

[7] = system: BRAPP (Brachiaria platyphylla (Griseb.) Nash, broadleaf signalgrass); assay: Postemergence foliar-applied herbicidal mixtures, direct seeded rice, greenhouse (Example I)
Text: as §1, §2, §3, §4, §5, §6, §7, §8, §9

[8] = system: ECHCG (Echinochloa crusgalli (L.) Beauv., barnyardgrass); assay: as above
Text: as §1, §2, §3, §4, §5, §6, §7, §8, §9

[9] = system: IPOHE (Ipomoea hederacea Jacq., ivyleaf morningglory); assay: as above
Text: as §1, §2, §3, §4, §5, §6, §7, §8, §9

[10] = system: CYPRO (Cyperus rotundus L., purple nutsedge); assay: In-water applied herbicidal mixtures, transplanted paddy rice, greenhouse (Example II)
Experimental: as §10, §11, §12, §13, §14, §15
as §7, with “water was added as needed” for “watered by sub-irrigation”, “maintain a paddy flood.” for “prevent wash-off of the test compounds.”, “weeks” for “weeks,”
as §8, §9

[11] = Compound A n-Butyl Ester 4.38 gae/ha
[12] = Compound A n-Butyl Ester 8.75 gae/ha
[13] = Compound A n-Butyl Ester 17.5 gae/ha

`CCOc1nc(F)cc2nc(S(=O)(=O)Nc3c(Cl)cccc3C(=O)OC)nn12` [Cloransulam-methyl, methyl 3-chloro-2-[[(5-ethoxy-7-fluoro[1,2,4]triazolo[1,5-c]pyrimidin-2-yl)sulfonyl]amino]benzoate, reference compound] was tested, and the “Visual Weed Control (%) - 20 DAA CYPIR Obs” value ([1]; Cloransulam-methyl 4.38 gai/ha) was 70%, the “Visual Weed Control (%) - 20 DAA CYPIR Obs” value ([1]; Cloransulam-methyl 8.75 gai/ha) was 85% and the “Visual Weed Control (%) - 20 DAA DIGSA Obs” value [2] was 10%. For the same compound, the “Visual Weed Control (%) - 20 DAA LEFCH Obs” value ([3]; Cloransulam-methyl 2.19 gai/ha, Table 7) was 0%, the “Visual Weed Control (%) - 20 DAA LEFCH Obs” value ([3]; Cloransulam-methyl 4.38 gai/ha, Table 6) was 0% and the “Visual Weed Control (%) - 20 DAA LEFCH Obs” value ([3]; Cloransulam-methyl 4.38 gai/ha, Table 7) was 0%. For the same compound, the “Visual Weed Control (%) - 20 DAA LEFCH Obs” value ([3]; Cloransulam-methyl 8.75 gai/ha, Table 6) was 0%, the “Visual Weed Control (%) - 21 DAA CYPDI Obs” value ([4]; Cloransulam-methyl 17.5 gai/ha) was 40% and the “Visual Weed Control (%) - 21 DAA CYPDI Obs” value ([4]; Cloransulam-methyl 35 gai/ha) was 80%. For the same compound, the “Visual Weed Control (%) - 22 DAA ECHCG Obs” value ([5]; Cloransulam-methyl 17.5 gai/ha) was 50%, the “Visual Weed Control (%) - 21 DAA FIMMI Obs” value ([6]; Cloransulam-methyl 17.5 gai/ha, Table 14) was 40% and the “Visual Weed Control (%) - 21 DAA FIMMI Obs” value ([6]; Cloransulam-methyl 17.5 gai/ha, Table 15) was 40%. For the same compound, the “Visual Weed Control (%) - 21 DAA FIMMI Obs” value ([6]; Cloransulam-methyl 35 gai/ha, Table 14) was 60% and the “Visual Weed Control (%) - 21 DAA FIMMI Obs” value ([6]; Cloransulam-methyl 35 gai/ha, Table 15) was 60%.
For `CCCCOC(=O)c1nc(-c2ccc(Cl)c(OC)c2F)c(F)c(N)c1Cl` [Compound A n-Butyl Ester], the “Visual Weed Control (%) - 21 DAA BRAPP Obs” value [7, 11] was 0%, the “Visual Weed Control (%) - 21 DAA BRAPP Obs” value [7, 12] was 40% and the “Visual Weed Control (%) - 27 DAA ECHCG Obs” value [8, 11] was 0%. The “Visual Weed Control (%) - 27 DAA ECHCG Obs” value [8, 12] was 0%, the “Visual Weed Control (%) - 27 DAA ECHCG Obs” value [8, 13] was 90% and the “Visual Weed Control (%) - 27 DAA IPOHE Obs” value [9, 11] was 10%. For the same compound, the “Visual Weed Control (%) - 27 DAA IPOHE Obs” value [9, 12] was 10% and the “Visual Weed Control (%) - 27 DAA IPOHE Obs” value [9, 13] was 10%.
In the case of `CCOc1nc(F)cc2nc(S(=O)(=O)Nc3c(Cl)cccc3Cl)nn12` [Diclosulam, N-(2,6-dichlorophenyl)-5-ethoxy-7-fluoro[1,2,4]triazolo[1,5-c]pyrimidine-2-sulfonamide, reference compound], the “Visual Weed Control (%) - 20 DAA LEFCH Obs” value ([3]; Diclosulam 6.62 gai/ha, Table 4) is reported as 0%, the “Visual Weed Control (%) - 20 DAA LEFCH Obs” value ([3]; Diclosulam 6.62 gai/ha, Table 5) is reported as 0% and the “Visual Weed Control (%) - 20 DAA LEFCH Obs” value ([3]; Diclosulam 13.25 gai/ha, Table 5) is reported as 20%. For the same compound, the “Visual Weed Control (%) - 21 DAA CYPRO Obs” value ([10]; Diclosulam 6.62 gai/ha) was 80%, the “Visual Weed Control (%) - 21 DAA CYPRO Obs” value ([10]; Diclosulam 13.25 gai/ha) was 80% and the “Visual Weed Control (%) - 21 DAA ECHCG Obs” value ([5]; Diclosulam 6.62 gai/ha) was 70%.

From patent publication US8906825B2, “Herbicidal compositions comprising 4-amino-3-chloro-5-fluoro-6-(4-chloro-2-fluoro-3-methoxyphenyl) pyridine-2-carboxylic acid or a derivative thereof and triazolopyrimidine sulfonamides” (Dow AgroSciences LLC, priority 2012, dated 2014)
